According to ChEMBL document CHEMBL3616471, “Synthesis and in vitro antitumor evaluation of betulin acid ester derivatives as novel apoptosis inducers” (Eur J Med Chem, 2015):
Active and inactive are the calls of the source. The calls are words filed in the database; no cut-off is given here.

Experiments:
MGC-803 [1] = assay: Cytotoxicity against human MGC803 cells after 72 hrs by MTT assay; assay type: functional, cell-based; conditions: MGC-803, 72 h
PC-3 [2] = assay: Cytotoxicity against human PC3 cells after 72 hrs by MTT assay; assay type: functional, cell-based; conditions: PC-3, 72 h
Bcap37 [3] = assay: Cytotoxicity against human Bcap37 cells after 72 hrs by MTT assay; assay type: functional, cell-based; conditions: Bcap37, 72 h
A-375 [4] = assay: Cytotoxicity against human A375 cells after 72 hrs by MTT assay; assay type: functional, cell-based; conditions: A-375, 72 h
MCF7 [5] = assay: Cytotoxicity against human MCF7 cells after 72 hrs by MTT assay; assay type: functional, cell-based; conditions: MCF7, 72 h
[6] = Cytotoxicity against mouse NIH/3T3 cells after 72 hrs by MTT assay; assay type: cell-based; conditions: nih3t3, 72 h
MGC-803 [7] = assay: Selectivity index, ratio of IC50 for mouse NIH/3T3 cells to IC50 for human MGC803 cells; assay type: functional
PC-3 [8] = assay: Selectivity index, ratio of IC50 for mouse NIH/3T3 cells to IC50 for human PC3 cells; assay type: functional
Bcap37 [9] = assay: Selectivity index, ratio of IC50 for mouse NIH/3T3 cells to IC50 for human Bcap37 cells; assay type: functional
A-375 [10] = assay: Selectivity index, ratio of IC50 for mouse NIH/3T3 cells to IC50 for human A375 cells; assay type: functional
MCF7 [11] = assay: Selectivity index, ratio of IC50 for mouse NIH/3T3 cells to IC50 for human MCF7 cells; assay type: functional
MGC-803 [12] = assay: Induction of apoptosis in human MGC803 cells assessed as compact and condensed chromatin at 10 uM after 48 hrs using Hoechst 33258 staining by fluorescence microscopic analysis; assay type: functional, cell-based
MGC-803 [13] = assay: Induction of apoptosis in human MGC803 cells assessed as formation of nicks in DNA at 10 uM after 48 hrs by TUNNEL assay; assay type: functional, cell-based

| SMILES | IC50 (MGC-803 [1]) [µM] | IC50 (PC-3 [2]) [µM] | IC50 (Bcap37 [3]) [µM] | IC50 (A-375 [4]) [µM] | IC50 (MCF7 [5]) [µM] | Activity [6] | Ratio IC50 (MGC-803 [7]) | Ratio IC50 (PC-3 [8]) | Ratio IC50 (Bcap37 [9]) | Ratio IC50 (A-375 [10]) | Ratio IC50 (MCF7 [11]) | Activity (MGC-803 [12]) | Activity (MGC-803 [13]) |
| --- | --- | --- | --- | --- | --- | --- | --- | --- | --- | --- | --- | --- | --- |
| C=C(C)[C@@H]1CC[C@]2(COC(=O)/C=C/C(=O)N3CCCCC3)CC[C@]3(C)[C@H](CC[C@@H]4[C@@]5(C)CC[C@H](O)C(C)(C)[C@@H]5CC[C@]43C)[C@@H]12 | 5.3 | 9.6 | 7.4 | 14.4 | 6.3 | Toxic | >3 | >3 | >3 | >3 | >3 |  |  |
| C=C(C)[C@@H]1CC[C@]2(COC(=O)CCC(=O)O)CC[C@]3(C)[C@H](CC[C@@H]4[C@@]5(C)CC[C@H](O)C(C)(C)[C@@H]5CC[C@]43C)[C@@H]12 | 11.3 | 12.5 | 15.7 | 17.9 | 14.5 | Non-toxic | 6.45 | 5.83 | 4.64 | 4.07 | 5.02 |  |  |
| C=C(C)[C@@H]1CC[C@]2(COC(=O)c3ccccc3)CC[C@]3(C)[C@H](CC[C@@H]4[C@@]5(C)CC[C@H](O)C(C)(C)[C@@H]5CC[C@]43C)[C@@H]12 | > 100 | > 100 | > 100 | > 100 | > 100 |  |  |  |  |  |  |  |  |
| CC[C@@]1(O)C(=O)OCc2c1cc1n(c2=O)Cc2cc3cc(O)ccc3nc2-1 |  |  |  |  |  |  |  |  |  |  |  | Active | Active |
| C=C(C)[C@@H]1CC[C@]2(COC(=O)c3ccccc3C(F)(F)F)CC[C@]3(C)[C@H](CC[C@@H]4[C@@]5(C)CC[C@H](O)C(C)(C)[C@@H]5CC[C@]43C)[C@@H]12 | > 100 | > 100 | > 100 | > 100 | > 100 |  |  |  |  |  |  |  |  |
| C=C(C)[C@@H]1CC[C@]2(COC(=O)/C=C/C(=O)O)CC[C@]3(C)[C@H](CC[C@@H]4[C@@]5(C)CC[C@H](O)C(C)(C)[C@@H]5CC[C@]43C)[C@@H]12 | 21.3 | 25.8 | 18.3 | 23.2 | 17.1 | Toxic | >3 | >3 | >3 | >3 | >3 |  |  |
| C=C(C)[C@@H]1CC[C@]2(COC(=O)CCC(=O)N3CCCC3)CC[C@]3(C)[C@H](CC[C@@H]4[C@@]5(C)CC[C@H](O)C(C)(C)[C@@H]5CC[C@]43C)[C@@H]12 | 8.9 | 8.3 | 7.9 | 12.6 | 10.1 | Non-toxic | 4.97 | 5.33 | 5.6 | 3.52 | 4.38 |  |  |
| C=C(C)[C@@H]1CC[C@]2(COC(=O)c3ccccc3)CC[C@]3(C)[C@H](CC[C@@H]4[C@@]5(C)CC[C@H](OC(=O)c6ccccc6)C(C)(C)[C@@H]5CC[C@]43C)[C@@H]12 | > 100 | > 100 | > 100 | > 100 | > 100 |  |  |  |  |  |  |  |  |
| C=C(C)[C@@H]1CC[C@]2(COC(=O)Cc3ccc(Cl)cc3)CC[C@]3(C)[C@H](CC[C@@H]4[C@@]5(C)CC[C@H](O)C(C)(C)[C@@H]5CC[C@]43C)[C@@H]12 | > 100 | > 100 | > 100 | > 100 | > 100 |  |  |  |  |  |  |  |  |
| C=C(C)[C@@H]1CC[C@]2(COC(=O)CCC(=O)N3CCOCC3)CC[C@]3(C)[C@H](CC[C@@H]4[C@@]5(C)CC[C@H](O)C(C)(C)[C@@H]5CC[C@]43C)[C@@H]12 | 9.2 | 11.2 | 6.4 | 18.5 | 11.5 | Non-toxic | 6.23 | 5.12 | 8.97 | 3.1 | 4.99 |  |  |
| C=C(C)[C@@H]1CC[C@]2(COC(=O)/C=C/c3ccccc3)CC[C@]3(C)[C@H](CC[C@@H]4[C@@]5(C)CC[C@H](O)C(C)(C)[C@@H]5CC[C@]43C)[C@@H]12 | > 100 | > 100 | > 100 | > 100 | > 100 |  |  |  |  |  |  |  |  |
| C=C(C)[C@@H]1CC[C@]2(COC(=O)c3ccccc3C)CC[C@]3(C)[C@H](CC[C@@H]4[C@@]5(C)CC[C@H](O)C(C)(C)[C@@H]5CC[C@]43C)[C@@H]12 | > 100 | > 100 | > 100 | > 100 | > 100 |  |  |  |  |  |  |  |  |
| C=C(C)[C@@H]1CC[C@]2(COC(=O)c3ccc(F)cc3)CC[C@]3(C)[C@H](CC[C@@H]4[C@@]5(C)CC[C@H](O)C(C)(C)[C@@H]5CC[C@]43C)[C@@H]12 | > 100 | > 100 | > 100 | > 100 | > 100 |  |  |  |  |  |  |  |  |
| C=C(C)[C@@H]1CC[C@]2(COC(=O)c3cccc([N+](=O)[O-])c3)CC[C@]3(C)[C@H](CC[C@@H]4[C@@]5(C)CC[C@H](OC(=O)c6cccc([N+](=O)[O-])c6)C(C)(C)[C@@H]5CC[C@]43C)[C@@H]12 | > 100 | > 100 | > 100 | > 100 | > 100 |  |  |  |  |  |  |  |  |
| C=C(C)[C@@H]1CC[C@]2(COC(=O)CCC(=O)N(CC)CC)CC[C@]3(C)[C@H](CC[C@@H]4[C@@]5(C)CC[C@H](O)C(C)(C)[C@@H]5CC[C@]43C)[C@@H]12 | 8.5 | 9.6 | 6.7 | 10.3 | 9.2 | Non-toxic | 7.29 | 6.45 | 9.25 | 6.01 | 6.73 |  |  |
| C=C(C)[C@@H]1CC[C@]2(COC(=O)c3ccccc3Cl)CC[C@]3(C)[C@H](CC[C@@H]4[C@@]5(C)CC[C@H](OC(=O)c6ccccc6Cl)C(C)(C)[C@@H]5CC[C@]43C)[C@@H]12 | > 100 | > 100 | > 100 | > 100 | > 100 |  |  |  |  |  |  |  |  |
| C=C(C)[C@@H]1CC[C@]2(CO)CC[C@]3(C)[C@H](CC[C@@H]4[C@@]5(C)CC[C@H](O)C(C)(C)[C@@H]5CC[C@]43C)[C@@H]12 [BETULIN] | 30.2 | 22.4 | 25.5 | 28 | 19.3 |  |  |  |  |  |  |  |  |
| C=C(C)[C@@H]1CC[C@]2(COC(=O)c3ccccc3C(F)(F)F)CC[C@]3(C)[C@H](CC[C@@H]4[C@@]5(C)CC[C@H](OC(=O)c6ccccc6C(F)(F)F)C(C)(C)[C@@H]5CC[C@]43C)[C@@H]12 | > 100 | > 100 | > 100 | > 100 | > 100 |  |  |  |  |  |  |  |  |
| C=C(C)[C@@H]1CC[C@]2(COC(=O)c3cccc(Cl)c3)CC[C@]3(C)[C@H](CC[C@@H]4[C@@]5(C)CC[C@H](O)C(C)(C)[C@@H]5CC[C@]43C)[C@@H]12 | > 100 | > 100 | > 100 | > 100 | > 100 |  |  |  |  |  |  |  |  |
